Like-named read-outs stand apart in the source and are kept apart here.
Columns and labels:
Assay type in all cases: physicochemical
[1] = Example 5: visible fluorescence under ultraviolet illumination
Source text: A sample of C14-16 linear alphaolefin was placed under ultraviolet illumination and its visible fluorescence noted. The fluorescence was compared to that of some other known base oils.

[2] = Kinematic viscosity (KV) of base oils
Source text: KV: The kinematic viscosity of an oil in centistokes.
(§1) Some properties of alk-1-enes of carbon number between 12 and 20 are shown in Table 1 (which appears at the end of this description) and compared with an ester oil, a linear alkyl benzene, and a polyalphaolefin.

Flash point of base oils = experiment: Flash point of base oils
Source text: as §1

Pour point of base oils = experiment: Pour point of base oils
Source text: as §1

Compound	Fluorescence (colour) ([1]; continued lines of the cell)	Fluorescence (intensity) ([1]; first printed line of the cell)	KV at 40° C. [2] [Cst]	Flash Point (Flash point of base oils) [°C]	Pour Point (Pour point of base oils)	KV at 40° C. ([2]; 40° C.) [Cst]
CCCCCCCC/C=C\CCCCCCCC(=O)OCC(CC)CCCC (stereo not drawn) [2-ethylhexyl oleate]	white	Medium	–	–	–	–
C=CCCCCCCCCCC [C12]	–	–	1.29	77	-35 °C	–
C=CCCCCCCCCCCCC [C14]	–	–	–	107	-13 °C	1.85
C=CCCCCCCCCCCCCCC [C16]	–	–	2.62	–	+4 °C	–
C=CCCCCCCCCCCCCCCCC [C18]	–	–	–	–	+18 °C	3.59

Reference: patent US5627143A, “Wellbore fluid” (Dowell Schlumberger Incorporated, priority 1993, dated 1997)
